Measurements published in patent US9446128B2 (priority 2008, dated 2016).
Where “and” joins values, the source holds several entries; their conditions need not be identical. Equal values may be shown once.

Tested on: salmonella typimurium TA100
Assay: Microorganism reverse mutation test, strain TA100
Details: TA100, positive control, 1 μg/plate
Protocol: The principle of this test is to make use of histidine-requiring strains that are not alive without histidine. This test is performed for detecting histidine recovery, which is original strain property, caused by mutagen in a mutant test.
To carry out the microorganism reverse mutation test, the test was conducted on test standard strains, salmonella typimurium TA98, TA100, TA1535 and TA1537 as pre-culture. […] The salmonella typimurium TA100 is a test strain upon the reversion of guanine and cytosine in a gene, and the salmonella typimurium TA102 is a test strain upon the reversion of adenine and thymine.
As a negative control group, distilled water was used.
The respective test materials, positive control group chemicals, distilled water were treated on a plate, and thereafter the number of revertant strains was measured.

[N-]=[N+]=[N-] [sodium azide]
Average number of revertant strains: 1,279 and 1,559
Number of revertant strains: 1,136 and 1,421 and 1,662 and 1,456
